Structures can show the parent of a compound that is named as a salt.
These molecules were tested against T1, p110α Type Ia human PI3K (Homo sapiens, UniProt P42336) (assay: Test (a) In Vitro PI3K Enzyme Assay (AlphaScreen)). Settings: read-out: IC50 versus p110α PI3K.
T1 construct: full length DNA of each of the p110α, p110β and p110δ Type Ia human PI3K p110 isoforms; 6-His; made in house; host or cells: baculovirus expression system (Sf9 is named only for PI3Kγ)
Assay type: biochemical
Excerpt: The assay used AlphaScreen technology (Gray et al., Analytical Biochemistry, 2003, 313: 234-245) to determine the ability of test compounds to inhibit phosphorylation by recombinant Type I PI3K enzymes of the lipid PI(4,5)P2.
DNA fragments encoding human PI3K catalytic and regulatory subunits were isolated from cDNA libraries using standard molecular biology and PCR cloning techniques. The selected DNA fragments were used to generate baculovirus expression vectors. In particular, full length DNA of each of the p110α, p110β and p110δ Type Ia human PI3K p110 isoforms (EMBL Accession Nos. HSU79143, S67334, Y10055 for p110α, p110β and p110δ respectively) were sub-cloned into a pDEST10 vector (Invitrogen Limited, Fountain Drive, Paisley, UK). The vector is a Gateway-adapted version of Fastbac1 containing a 6-His epitope tag. A truncated form of Type Ib human PI3K p110γ isoform corresponding to amino acid residues 144-1102 (EMBL Accession No. X8336A) and the full length human p85α regulatory subunit (EMBL Accession No. HSP13KIN) were also sub-cloned into pFastBac1 vector containing a 6-His epitope tag. The Type Ia p110 constructs were co-expressed with the p85α regulatory subunit. Following expression in the baculovirus system using standard baculovirus expression techniques, expressed proteins were purified using the His epitope tag using standard purification techniques.
DNA corresponding to amino acids 263 to 380 of human general receptor for phosphoinositides (Grp1) PH domain was isolated from a cDNA library using standard molecular biology and PCR cloning techniques. The resultant DNA fragment was sub-cloned into a pGEX 4T1 E. coli expression vector containing a GST epitope tag (Amersham Pharmacia Biotech, Rainham, Essex, UK) as described by Gray et al., Analytical Biochemistry, 2003, 313: 234-245). The GST-tagged Grp1 PH domain was expressed and purified using standard techniques.
Test compounds were prepared as […] stock solutions in DMSO and diluted into water as required to give a range of final assay concentrations. Aliquots (2 μl) of each compound dilution were placed into a well of a Greiner 384-well low volume (LV) white polystyrene plate (Greiner Bio-one, Brunel Way, Stonehouse, Gloucestershire, UK Catalogue No. 784075). […]
Biotinylated-DiC8-PI(3,4,5)P3 (50 nM; Cell Signals Inc., Catalogue No. 107), recombinant purified GST-Grp1 PH protein (2.5 nM) and AlphaScreen Anti-GST donor and acceptor beads (100 ng; Packard Bioscience Limited, Station Road, Pangbourne, Berkshire, UK, Catalogue No. 6760603M) were added and the assay plates were left for about 5 to 20 hours at room temperature in the dark. The resultant signals arising from laser light excitation at 680 nm were read using a Packard AlphaQuest instrument. […]

T1 sequence (P42336 whole entry, canonical isoform): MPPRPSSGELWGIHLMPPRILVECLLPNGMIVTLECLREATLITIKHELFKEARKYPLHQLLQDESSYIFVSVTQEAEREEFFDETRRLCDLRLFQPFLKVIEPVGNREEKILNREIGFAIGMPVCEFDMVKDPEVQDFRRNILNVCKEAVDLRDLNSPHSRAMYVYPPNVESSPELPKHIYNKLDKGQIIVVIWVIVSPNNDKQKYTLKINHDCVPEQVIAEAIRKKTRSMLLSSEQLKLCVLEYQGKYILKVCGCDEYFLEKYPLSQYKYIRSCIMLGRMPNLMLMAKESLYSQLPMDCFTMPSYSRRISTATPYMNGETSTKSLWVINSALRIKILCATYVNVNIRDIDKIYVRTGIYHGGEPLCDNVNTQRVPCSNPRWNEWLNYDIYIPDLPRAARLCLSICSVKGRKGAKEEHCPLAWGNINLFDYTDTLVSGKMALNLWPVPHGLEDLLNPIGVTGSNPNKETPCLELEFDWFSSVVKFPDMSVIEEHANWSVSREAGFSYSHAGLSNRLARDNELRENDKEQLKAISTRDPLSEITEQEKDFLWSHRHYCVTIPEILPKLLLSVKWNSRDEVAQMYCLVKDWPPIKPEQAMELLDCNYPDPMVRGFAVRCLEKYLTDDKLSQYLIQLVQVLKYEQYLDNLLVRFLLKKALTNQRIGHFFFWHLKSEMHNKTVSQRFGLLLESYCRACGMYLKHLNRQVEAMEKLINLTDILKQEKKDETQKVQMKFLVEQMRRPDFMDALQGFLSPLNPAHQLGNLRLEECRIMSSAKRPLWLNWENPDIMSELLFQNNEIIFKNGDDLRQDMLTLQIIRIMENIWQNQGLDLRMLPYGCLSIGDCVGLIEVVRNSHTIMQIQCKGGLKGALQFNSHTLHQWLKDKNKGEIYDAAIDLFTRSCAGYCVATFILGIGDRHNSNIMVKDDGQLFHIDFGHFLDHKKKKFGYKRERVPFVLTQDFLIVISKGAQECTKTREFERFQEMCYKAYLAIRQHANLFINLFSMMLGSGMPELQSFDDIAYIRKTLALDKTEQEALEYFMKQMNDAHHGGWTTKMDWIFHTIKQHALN
T1 sequence (P27986 whole entry partner, canonical isoform): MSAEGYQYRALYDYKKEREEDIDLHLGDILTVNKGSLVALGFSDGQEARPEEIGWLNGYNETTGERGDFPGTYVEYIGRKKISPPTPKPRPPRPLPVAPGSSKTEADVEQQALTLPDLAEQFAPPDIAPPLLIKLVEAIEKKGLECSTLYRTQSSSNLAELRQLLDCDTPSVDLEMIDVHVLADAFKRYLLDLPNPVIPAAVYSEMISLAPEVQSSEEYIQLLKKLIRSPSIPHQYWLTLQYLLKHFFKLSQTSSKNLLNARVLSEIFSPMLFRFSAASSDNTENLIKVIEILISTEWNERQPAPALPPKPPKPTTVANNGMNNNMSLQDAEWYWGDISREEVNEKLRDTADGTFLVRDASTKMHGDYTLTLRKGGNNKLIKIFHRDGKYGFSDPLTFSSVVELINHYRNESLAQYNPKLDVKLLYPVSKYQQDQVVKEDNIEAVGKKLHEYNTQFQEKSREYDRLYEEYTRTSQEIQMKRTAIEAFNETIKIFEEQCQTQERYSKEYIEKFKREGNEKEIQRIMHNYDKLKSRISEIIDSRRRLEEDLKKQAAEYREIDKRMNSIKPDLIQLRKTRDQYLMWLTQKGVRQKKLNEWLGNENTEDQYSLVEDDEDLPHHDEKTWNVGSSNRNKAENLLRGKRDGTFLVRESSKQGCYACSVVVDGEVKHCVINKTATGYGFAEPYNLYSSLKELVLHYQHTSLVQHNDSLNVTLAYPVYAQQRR

| IC50 [nM] | SMILES |
| --- | --- |
| ~200 | CC(=O)Nc1nc(C)c(-c2cnc(Cl)c(NCc3ccc(F)cc3)c2)s1 [Compound No. 3 within Example 79, N-{5-[6-Chloro-5-(4-fluorobenzylamino)pyridin-3-yl]-4-methyl-1,3-thiazol-2-yl}acetamide] |
| ~30 | CC(=O)Nc1nc(C)c(-c2cnc(Cl)c(S(=O)(=O)Nc3ccccc3)c2)s1 [Compound No. 4 within Example 73, N-{5-[6-Chloro-5-(N-phenylsulfamoyl)pyridin-3-yl]-4-methyl-1,3-thiazol-2-yl]acetamide] |
| ~10 | CC(=O)Nc1nc(C)c(-c2cnc(Cl)c(NS(C)(=O)=O)c2)s1 [Example 28, N-[5-(6-Chloro-5-methylsulfonylaminopyridin-3-yl)-4-methyl-1,3-thiazol-2-yl]acetamide trifluoroacetate] |
